{
  "source": "patent US5647363A",
  "about": "“Ambulatory clearance function monitor” (The General Hospital Corporation, priority 1994, dated 1997)",
  "key": {"[1]": {"assay": "Clearance rate constant of labelled tracer by external ambulatory renal monitor", "format": "in vivo", "conditions": "patient in intensive care unit, initial (moderately decreased renal function)", "experimental": "A more detailed description of an example of a renal function monitor follows, in which clearance of a radiolabelled injected substance was measured according to the detected radiation according to the invention. The performance of the apparatus was tested by comparison with results obtained using standard techniques.\nData collection was performed using a battery-operated, pocket-size lightweight data logger having 32K total RAM (Tattletale, Model V, Onset Computer Corp., N. Falmouth, Mass.). The detector was a 16 mm diameter×2 mm thick cadmium-telluride (Cd-Te) detector (Radiation Monitoring Devices, Watertown, Mass.) connected to a preamplifier and a lower level discriminator. […]\nThe usual diet was not altered. Weight and height were measured soon after arrival at the treatment facility. […]\nTo determine the value of the invention for monitoring of renal function, two patients at risk of ARF with serum creatinine ≥2 mg/dl were monitored before, during and after an angiographic procedure. […] The rate constant, as measured according to the invention, decreased in this patient from 2.85×10^-3 min^-1 to 0.2×10^-3 min^-1; and the serum creatinine in this patient increased from 2.4 to 2.8 mg/dl over the succeeding 12 hours.\nThe rate of clearance of ^99m Tc-DTPA was also monitored in a patient in an intensive care unit. […]"}, "[2]": {"conditions": "human, in vivo; cited from earlier work"}},
  "data": [
    {"smiles": "O=C([O-])CN(CCN(CC(=O)[O-])CC(=O)[O-])CCN(CC(=O)[O-])CC(=O)[O-].[99Tc+4]", "note": "[^99m Tc-DTPA]", "values": [
      {"measurement": "rate constant", "setting": "[1]", "value": 0.0035, "unit": "min⁻¹"},
      {"measurement": "rate constant (Normal)", "setting": "[2]", "value": 0.0065, "unit": "min⁻¹"}
    ]}
  ]
}
